{
  "source": "paper PMC12384813",
  "key": {"[1]": {"design": "method as in PMID 30023392", "details": "daily cisplatin for 5 days before radiation ref 24; cited from earlier work"}, "[2]": {"test_system": "SVG p12 normal glial cells"}, "U87 MG cells": {"test_system": "U87 MG cells", "assay": "cells", "assay_type": "cell-based, human", "details": "U87 MG", "protocol": "In this procedure, U87 MG (2 × 10^4 cells per well) were seeded in BD falcon transparent 96-well plates and incubated for 24 h."}, "[3]": {"target": "T1, αvβ3 integrins on human GBM (U87 MG) cell (Homo sapiens, UniProt P05106+P06756)", "T1 construct": "host or cells: U87 MG", "assay": "Competition assay against [^64Cu]Cu-NOTA-c(RGDfK) on U87 MG cells", "assay_type": "binding", "details": "in competition to [^64Cu]Cu-NOTA-c(RGDfK), 1 h incubation"}},
  "note": "Read-outs that look alike come from different tables or passages of the source.",
  "data": [
    {"smiles": "N.N.[Cl][Pt][Cl]", "note": "[Cisplatin]", "values": [
      {"measurement": "increase of treatment efficacy compared to radiotherapy alone", "setting": "[1]", "value": 35, "unit": "%"},
      {"measurement": "EC50", "setting": "[2]", "value": "15 ± 5", "unit": "µM"},
      {"measurement": "EC50", "setting": "[2]; read-out: EC50 24 h SVG p12, 24 h, SVG p12", "value": "35 ± 4", "unit": "µM"},
      {"measurement": "EC50", "setting": "[2]; read-out: EC50 48 h SVG p12, 48 h, SVG p12", "value": "15 ± 7", "unit": "µM"},
      {"measurement": "EC50", "setting": "U87 MG cells; 24 h, read-out: EC50 24 h U87 MG", "value": "90 ± 8", "unit": "µM"},
      {"measurement": "EC50", "setting": "U87 MG cells; 48 h, read-out: EC50 48 h U87 MG", "value": "25 ± 6", "unit": "µM"},
      {"measurement": "EC50", "setting": "U87 MG cells; 72 h, read-out: EC50 72 h U87 MG", "value": "20 ± 5", "unit": "µM"}
    ]},
    {"smiles": "N=C(N)NCCC[C@@H]1NC(=O)[C@H](CCCCNC(=O)CNC(=O)COCCOCCNC(=O)CN2CCN(CC(=O)O)CCN(CC(=O)O)CC2)NC(=O)[C@@H](Cc2ccccc2)NC(=O)[C@H](CC(=O)O)NC(=O)CNC1=O", "note": "[^natCu-NOTA-c(RGDfK), metal not drawn]", "values": [
      {"measurement": "IC50", "setting": "[3]", "value": "0.0106 ± 0.0032", "unit": "µM"}
    ]}
  ]
}
